Laboratory results taken from article PMC4764904 (Scientific Reports, 2016).
Like-named read-outs stand apart in the source and are kept apart here. Where a SMILES comes first, the peptide text is derived from it. Where no end group is shown, it is not given here. [ ]: non-standard residue; d: D form. Cit = NC(=O)NCCC[C@H](N)C(=O)O; pGlu = O=C1CC[C@@H](C(=O)O)N1

Assays:
human GALR2 = molecular target: T1, human GALR2 (Homo sapiens, UniProt O43603); assay: SRE-luc reporter assay, GALR2; type: cell-based;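 further: luciferase activity read in cell lysates after exposure to rising peptide concentrations, EC50 being the agonist level giving half-maximal stimulation from a sigmoidal nonlinear regression fit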
T1 construct: host or cells: HEK293 cells stably expressing Gαqi
T1 sequence (O43603 1-387): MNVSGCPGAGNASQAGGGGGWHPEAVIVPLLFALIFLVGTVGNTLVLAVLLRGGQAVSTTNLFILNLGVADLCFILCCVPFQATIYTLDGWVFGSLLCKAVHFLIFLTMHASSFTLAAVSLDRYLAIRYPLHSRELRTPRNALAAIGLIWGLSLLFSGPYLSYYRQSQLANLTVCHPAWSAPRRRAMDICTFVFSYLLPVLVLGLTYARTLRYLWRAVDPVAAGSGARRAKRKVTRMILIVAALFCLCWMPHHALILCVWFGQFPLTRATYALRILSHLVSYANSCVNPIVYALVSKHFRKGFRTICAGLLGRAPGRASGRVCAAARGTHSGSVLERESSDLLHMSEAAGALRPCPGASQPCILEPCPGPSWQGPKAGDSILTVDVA

human GALR3 = molecular target: T2, human GALR3 (Homo sapiens, UniProt O60755); assay: SRE-luc reporter assay, GALR3; type: cell-based;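 further: luciferase activity read in cell lysates across rising peptide concentrations, EC50 being the agonist concentration giving half-maximal stimulation from a sigmoidal nonlinear fit, Gαqi routing Gi-coupled receptor signaling through Gq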
T2 construct: host or cells: HEK293 cells stably expressing Gαqi
T2 sequence (O60755 1-368): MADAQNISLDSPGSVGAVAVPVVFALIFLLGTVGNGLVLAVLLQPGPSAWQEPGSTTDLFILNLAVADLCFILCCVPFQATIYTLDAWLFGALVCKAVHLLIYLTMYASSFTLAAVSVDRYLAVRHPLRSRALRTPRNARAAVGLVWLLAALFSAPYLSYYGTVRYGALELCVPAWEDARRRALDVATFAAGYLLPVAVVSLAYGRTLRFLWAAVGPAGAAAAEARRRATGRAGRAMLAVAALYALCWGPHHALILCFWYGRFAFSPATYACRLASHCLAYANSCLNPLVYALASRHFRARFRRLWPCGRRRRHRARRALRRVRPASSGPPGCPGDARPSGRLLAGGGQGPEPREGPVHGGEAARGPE

[1] = HEK293-Gqi cells transfected with SRE-luc and human GALR2, 6 h ligand treatment, mean ± S.E. of at least three independent experiments, NM = not measurable, read-out: GALR2 EC50
[2] = HEK293-Gqi cells transfected with SRE-luc and human GALR3, 6 h ligand treatment, mean ± S.E. of at least three independent experiments, NM = not measurable, read-out: GALR3 EC50

Row | Compound | EC50 (human GALR2; [1]) [nM] | EC50 (human GALR3; [2]) [nM] | EC50 (human GALR2) [nM] | EC50 (human GALR3) [nM]
1 | CSCC[C@H](NC(=O)[C@H](C)NC(=O)[C@H](CCC(N)=O)NC(=O)[C@@H]1CCCN1C(=O)[C@@H](NC(=O)[C@H](Cc1c[nH]c2ccccc12)NC(=O)[C@@H](N)CCCNC(N)=O)[C@@H](C)O)C(=O)N[C@@H](CC(C)C)C(=O)N[C@@H](Cc1ccc(O)cc1)C(=O)N[C@@H](CC(C)C)C(=O)N[C@@H](CCCCN)C(=O)NCC(=O)N[C@@H](C)C(=O)N[C@@H](CCC(N)=O)C(N)=O [Cit1] (H-[Cit]WTPQAMLYLKGAQ-NH2) | 61.7 ± 19 | 251 ± 65 |  | 
2 | CSCC[C@H](NC(=O)[C@@H](C)NC(=O)[C@H](CCC(N)=O)NC(=O)[C@@H]1CCCN1C(=O)[C@@H](NC(=O)[C@H](Cc1c[nH]c2ccccc12)NC(=O)[C@@H](N)CC(N)=O)[C@@H](C)O)C(=O)N[C@@H](CC(C)C)C(=O)N[C@@H](Cc1ccc(O)cc1)C(=O)N[C@@H](CC(C)C)C(=O)N[C@@H](CCCCN)C(=O)NCC(=O)N[C@@H](C)C(=O)N[C@@H](CCC(N)=O)C(N)=O [dA6] | 209 ± 27 | 316 ± 47.1 |  | 
3 | CSCC[C@H](NC(=O)[C@H](C)NC(=O)[C@H](CCC(N)=O)NC(=O)[C@@H]1CCCN1C(=O)[C@@H](NC(=O)[C@H](Cc1c[nH]c2ccccc12)NC(=O)[C@@H](N)CC(N)=O)[C@@H](C)O)C(=O)N[C@@H](CC(C)C)C(=O)N[C@@H](Cc1ccc(O)cc1)C(=O)N[C@@H](CC(C)C)C(=O)N[C@@H](CCCCN)C(=O)N[C@H](C)C(=O)N[C@@H](C)C(=O)N[C@@H](CCC(N)=O)C(N)=O [dA12] (H-NWTPQAMLYLK[dA]AQ-NH2) | 1230 ± 159 | 1410 ± 210 |  | 
4 | CSCC[C@H](NC(=O)[C@H](C)NC(=O)[C@H](CCC(N)=O)NC(=O)[C@@H]1CCCN1C(=O)[C@@H](NC(=O)[C@H](Cc1c[nH]c2ccccc12)NC(=O)[C@@H](N)CC(N)=O)[C@@H](C)O)C(=O)N[C@@H](CC(C)C)C(=O)N[C@@H](Cc1ccc(O)cc1)C(=O)N[C@H](CC(C)C)C(=O)N[C@@H](CCCCN)C(=O)NCC(=O)N[C@@H](C)C(=O)N[C@@H](CCC(N)=O)C(N)=O [dL10] | > 10000 | > 10000 |  | 
5 | CSCC[C@H](NC(=O)[C@H](C)NC(=O)[C@H](CCC(N)=O)NC(=O)[C@@H]1CCCN1C(=O)[C@H](NC(=O)[C@H](Cc1c[nH]c2ccccc12)NC(=O)[C@@H](N)CC(N)=O)[C@H](C)O)C(=O)N[C@@H](CC(C)C)C(=O)N[C@@H](Cc1ccc(O)cc1)C(=O)N[C@@H](CC(C)C)C(=O)N[C@@H](CCCCN)C(=O)NCC(=O)N[C@@H](C)C(=O)N[C@@H](CCC(N)=O)C(N)=O [dT3] | > 10000 | > 10000 |  | 
6 | CSCC[C@H](NC(=O)[C@H](C)NC(=O)[C@H](CCC(N)=O)NC(=O)[C@@H]1CCCN1C(=O)[C@@H](NC(=O)[C@H](Cc1c[nH]c2ccccc12)NC(=O)[C@@H](N)CC(N)=O)[C@@H](C)O)C(=O)N[C@@H](CC(C)C)C(=O)N[C@H](Cc1ccc(O)cc1)C(=O)N[C@@H](CC(C)C)C(=O)N[C@@H](CCCCN)C(=O)NCC(=O)N[C@@H](C)C(=O)N[C@@H](CCC(N)=O)C(N)=O [dY9] | > 10000 | > 10000 |  | 
7 | CSCC[C@H](NC(=O)[C@H](C)NC(=O)[C@H](CCC(N)=O)NC(=O)[C@@H]1CCCN1C(=O)[C@@H](NC(=O)[C@H](Cc1c[nH]c2ccccc12)NC(=O)[C@@H]1CCC(=O)N1)[C@@H](C)O)C(=O)N[C@@H](CC(C)C)C(=O)N[C@@H](Cc1ccc(O)cc1)C(=O)N[C@@H](CC(C)C)C(=O)N[C@@H](CCCCN)C(=O)NCC(=O)N[C@@H](C)C(=O)N[C@@H](CCC(N)=O)C(N)=O [pQ1] ([pGlu]WTPQAMLYLKGAQ-NH2) | 35 ± 7.82 | 61.7 ± 10.4 |  | 
8 | GWTPQAMLYLKGAQ-NH2 [G1] | 36.3 ± 7.47 | 93.3 ± 20.9 |  | 
9 | NWTLQAMLYLKGAQ-NH2 [L4] | 58.9 ± 7.59 | 105 ± 17.6 |  | 
10 | NWTPNAALYLFGAH-NH2 [N5A7F11H14] | 54.5 ± 10.8 | 3020 ± 978 |  | 
11 | NWTPNAALYLFGAQ-NH2 [N5A7F11] | 107 ± 20.1 | > 10000 |  | 
12 | NWTPNAMLYLKGAQ-NH2 [N5] | 61.7 ± 12.7 | 501 ± 184 |  | 
13 | NWTPQAALYLFGAQ-NH2 [A7F11] | 145 ± 27 | > 10000 |  | 
14 | NWTPQAALYLKGAQ-NH2 [A7] | 38.9 ± 7.28 | 468 ± 69.6 |  | 
15 | NWTPQAMGYLKGAQ-NH2 [G8] | 1020 ± 132 | 1230 ± 108 |  | 
16 | NWTPQAMLYLFGAQ-NH2 [F11] |  |  | 49 ± 10.1 | 708 ± 119
17 | NWTPQAMLYLKGAH-NH2 [Ha14] | 53.7 ± 6.92 | 70.8 ± 10.5 |  | 
18 | NWTPQAMLYLKGPQ-NH2 [P13] | 38.9 ± 5.8 | 380 ± 49.1 |  | 
19 | NWTPQAMLYLLGAQ-NH2 [L11] | 36.3 ± 10 | 331 ± 62 |  | 
